Measured values from the NIST ThermoML archive (doi:10.1016/j.jct.2007.05.017).

Assay: xn = mol fraction of the nth substance listed
Conditions: Liquid, Vibrating tube method

COC(=O)OC [dimethyl carbonate] + O=C=O
mass density [kg/m3]
Conditions	x2 = 0.2765	x2 = 0.4101	x2 = 0.4429	x2 = 0.5128	x2 = 0.5573	x2 = 0.6179	x2 = 0.6791	x2 = 0.6922	x2 = 0.7885	x2 = 0.7974
273 K	–	475.4	–	448.2	–	373.6	–	331.4	260.1	–
283 K	659.5	–	569.3	–	465.6	–	358.1	–	–	311.1
